Measured values from patent publication US20230102554A1 (GB002, INC., priority 2019, published 2023).

How the values were obtained:
[1] = target: T1, Human PDGFRβ, cytoplasmic domain (GST-PDGFRβ) (Homo sapiens, UniProt P09619); assay: Human PDGFRβ biochemical inhibition assay (off-chip Mobility Shift Assay)
T1 construct: made in house
Summary of the method: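 GST-tagged cytoplasmic domain (aa 557-1106) from baculovirus was incubated 1 h at room temperature with compound, CSKtide, ATP at Km and Mg²⁺ in HEPES buffer, pH 7.5. Phosphorylated and unphosphorylated peptide were separated by off-chip mobility shift, and the product ratio P/(P+S) gave percent inhibition.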

[2] = target: T2, Human PDGFRα, cytoplasmic domain (GST-PDGFRα) (Homo sapiens, UniProt P16234); assay: Human PDGFRα biochemical inhibition assay (off-chip Mobility Shift Assay)
T2 construct: made in house
T2 sequence (P16234 550-1089 T674I): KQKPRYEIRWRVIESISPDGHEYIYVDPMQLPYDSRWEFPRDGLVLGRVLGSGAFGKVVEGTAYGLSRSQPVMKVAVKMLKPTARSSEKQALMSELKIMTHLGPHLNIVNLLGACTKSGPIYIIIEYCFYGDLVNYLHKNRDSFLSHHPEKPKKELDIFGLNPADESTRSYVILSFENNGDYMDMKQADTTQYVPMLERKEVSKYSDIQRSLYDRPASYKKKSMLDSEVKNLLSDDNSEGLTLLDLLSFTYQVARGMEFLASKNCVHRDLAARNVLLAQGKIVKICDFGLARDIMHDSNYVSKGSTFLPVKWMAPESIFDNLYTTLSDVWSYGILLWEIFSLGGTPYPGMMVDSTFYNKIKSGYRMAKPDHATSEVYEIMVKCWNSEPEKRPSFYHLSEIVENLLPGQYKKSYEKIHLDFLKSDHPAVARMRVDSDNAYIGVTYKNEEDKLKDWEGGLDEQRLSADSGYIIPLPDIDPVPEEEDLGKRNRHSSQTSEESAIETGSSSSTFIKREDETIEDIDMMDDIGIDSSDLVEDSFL

T1 sequence (P09619 with tags, fused parts or gaps): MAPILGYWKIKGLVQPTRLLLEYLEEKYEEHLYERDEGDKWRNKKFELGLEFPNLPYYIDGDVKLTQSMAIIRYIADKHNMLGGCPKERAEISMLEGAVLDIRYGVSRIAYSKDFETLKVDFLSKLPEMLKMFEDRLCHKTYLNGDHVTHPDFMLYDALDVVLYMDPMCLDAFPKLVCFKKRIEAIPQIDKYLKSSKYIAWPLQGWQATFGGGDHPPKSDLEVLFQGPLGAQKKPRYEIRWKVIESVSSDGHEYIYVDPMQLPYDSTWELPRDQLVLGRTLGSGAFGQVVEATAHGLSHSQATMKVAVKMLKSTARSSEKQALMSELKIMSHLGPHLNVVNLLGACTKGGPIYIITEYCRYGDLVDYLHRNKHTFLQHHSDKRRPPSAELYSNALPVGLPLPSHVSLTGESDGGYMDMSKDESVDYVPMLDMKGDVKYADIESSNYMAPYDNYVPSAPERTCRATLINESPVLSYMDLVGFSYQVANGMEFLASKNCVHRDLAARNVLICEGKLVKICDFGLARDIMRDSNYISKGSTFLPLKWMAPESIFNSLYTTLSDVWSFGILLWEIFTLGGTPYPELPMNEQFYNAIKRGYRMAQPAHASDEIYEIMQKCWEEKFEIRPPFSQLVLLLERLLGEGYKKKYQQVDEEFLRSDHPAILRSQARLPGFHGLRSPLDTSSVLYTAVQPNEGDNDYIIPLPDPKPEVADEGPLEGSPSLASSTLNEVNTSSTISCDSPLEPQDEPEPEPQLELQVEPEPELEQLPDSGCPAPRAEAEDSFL

CC(C)n1cc(C(=O)Nc2cccc([C@H](C)Nc3cnc4[nH]cc(-c5cnn(C)c5)c4n3)c2)cn1 [Compound 588, (S)-1-isopropyl-N-(3-(1-((7-(1-methyl-1H-pyrazol-4-yl)-5H-pyrrolo[2,3-b]pyrazin-2-yl)amino)ethyl)phenyl)-1H-pyrazole-4-carboxamide]
IC50 [1]: < 300 nM
IC50 [2]: < 300 nM

Cc1cncc(C(=O)Nc2cccc([C@H](C)Nc3cnc4ccc(C(F)(F)F)cc4n3)c2)c1 [Compound 34, (S)-5-methyl-N-(3-(1-((7-(trifluoromethyl)quinoxalin-2-yl)amino)ethyl)phenyl) nicotinamide]
IC50 [1]: 300 to 1000 nM
IC50 [2]: < 300 nM

CCn1cc2ncc(N[C@@H](C)c3cc(NC(=O)Cc4cnc(C5CC5)c(F)c4)ccc3C)nc2n1 [Compound 708, (S)-2-(6-cyclopropyl-5-fluoropyridin-3-yl)-N-(3-(1-((2-ethyl-2H-pyrazolo[3,4-b]pyrazin-6-yl)amino)ethyl)-4-methylphenyl)acetamide]
IC50 [1]: 300 to 1000 nM
IC50 [2]: < 300 nM

CCn1cc2ncc(N[C@@H](C)c3cc(NC(=O)c4cnc(C5CC5)s4)ccc3F)nc2n1 [Compound 309, (S)-2-cyclopropyl-N-(3-(1-((2-ethyl-2H-pyrazolo[3,4-b]pyrazin-6-yl)amino)ethyl)-4-fluorophenyl)thiazole-5-carboxamide]
IC50 [1]: < 300 nM
IC50 [2]: < 300 nM

Cc1cncc(C(=O)Nc2cccc([C@H](C)Nc3cnn4ccc(-c5cnn(C)c5)cc34)c2)c1 [Compound 745, (S)-5-methyl-N-(3-(1-((5-(1-methyl-1H-pyrazol-4-yl)pyrazolo[1,5-a]pyridin-3-yl)amino)ethyl)phenyl) nicotinamide]
IC50 [1]: ≥ 1000 nM
IC50 [2]: ≥ 1000 nM

Cc1cncc(C(=O)Nc2cccc([C@H](C)Nc3cnc4[nH]cc(-c5cnn(C)c5)c4n3)c2)c1 [Compound 563, (S)-5-methyl-N-(3-(1-((7-(1-methyl-H-pyrazol-4-yl)-5H-pyrrolo[2,3-b]pyrazin-2-yl)amino)ethyl)phenyl) nicotinamide]
IC50 [1]: < 300 nM
IC50 [2]: < 300 nM

CCn1cc2ncc(N[C@@H](C)c3cc(NC(=O)c4ccc(N5CCN(C)CC5)c(C(F)(F)F)c4)ccc3F)nc2n1 [Compound 433, (S)-N-(3-(1-((2-ethyl-2H-pyrazolo[3,4-b]pyrazin-6-yl)amino)ethyl)-4-fluorophenyl)-4-(4-methylpiperazin-1-yl)-3-(trifluoromethyl)benzamide]
IC50 [1]: < 300 nM
IC50 [2]: < 300 nM

CCn1cc2ncc(N[C@@H](C)c3cccc(NC(=O)c4ccc(OC)nc4)c3)nc2n1 [Compound 285, (S)-N-(3-(1-((2-ethyl-2H-pyrazolo[3,4-b]pyrazin-6-yl)amino)ethyl)phenyl)-6-methoxynicotinamide]
IC50 [1]: ≥ 1000 nM
IC50 [2]: 300 to 1000 nM

CCn1cc2ncc(N[C@@H](C)c3cc(NC(=O)Cc4ccc(OC)cn4)ccc3C)nc2n1 [Compound 698, (S)-N-(3-(1-((2-ethyl-2H-pyrazolo[3,4-b]pyrazin-6-yl)amino)ethyl)-4-methylphenyl)-2-(5-methoxypyridin-2-yl) acetamide]
IC50 [1]: 300 to 1000 nM
IC50 [2]: < 300 nM

Cc1cc2ncc(N[C@@H](C)c3cc(NC(=O)c4ccc(C5CC5)nc4)ccc3F)nc2s1 [Compound 612, (S)-6-cyclopropyl-N-(4-fluoro-3-(1-((6-methylthieno[2,3-b]pyrazin-3-yl)amino)ethyl)phenyl)nicotinamide]
IC50 [1]: < 300 nM
IC50 [2]: < 300 nM

CCn1cc2ncc(N[C@@H](C)c3cccc(NC(=O)c4cnn(CC5CC5)c4)c3)nc2n1 [Compound 300, (S)-1-(cyclopropylmethyl)-N-(3-(1-((2-ethyl-2H-pyrazolo[3,4-b]pyrazin-6-yl)amino)ethyl)phenyl)-1H-pyrazole-4-carboxamide]
IC50 [1]: < 300 nM
IC50 [2]: < 300 nM

Cc1ccc(C(=O)Nc2cccc([C@H](C)Nc3cnc4cnn(C)c4n3)c2)cc1C [Compound 234, (S)-3,4-dimethyl-N-(3-(1-((1-methyl-1H-pyrazolo[3,4-b]pyrazin-6-yl)amino)ethyl)phenyl)benzamide]
IC50 [1]: < 300 nM
IC50 [2]: < 300 nM

CCn1cc2ncc(N[C@@H](C)c3cc(NC(=O)c4cc(C)c(CN5CCN(C)CC5)c(F)c4)ccc3C)nc2n1 [Compound 528, (S)-N-(3-(1-((2-ethyl-2H-pyrazolo[3,4-b]pyrazin-6-yl)amino)ethyl)-4-methylphenyl)-3-fluoro-5-methyl-4-((4-methylpiperazin-1-yl)methyl) benzamide]
IC50 [1]: < 300 nM
IC50 [2]: < 300 nM

CCn1cc2ncc(N[C@@H](C)c3cc(NC(=O)c4cnc(C(F)(F)F)c(C)c4)ccc3F)nc2n1 [Compound 335, (S)-N-(3-(1-((2-ethyl-2H-pyrazolo[3,4-b]pyrazin-6-yl)amino)ethyl)-4-fluorophenyl)-5-methyl-6-(trifluoromethyl) nicotinamide]
IC50 [1]: < 300 nM
IC50 [2]: < 300 nM

CCn1cc2ncc(N[C@@H](C)c3cccc(NC(=O)Nc4cc(C)ccn4)c3)nc2n1 [Compound 735, (S)-1-(3-(1-((2-ethyl-2H-pyrazolo[3,4-b]pyrazin-6-yl)amino)ethyl)phenyl)-3-(4-methylpyridin-2-yl)urea]
IC50 [1]: < 300 nM
IC50 [2]: < 300 nM

CCn1cc2ncc(N[C@@H](C)c3cc(NC(=O)c4ccc(NC)nc4)ccc3F)nc2n1 [Compound 337, (S)-N-(3-(1-((2-ethyl-2H-pyrazolo[3,4-b]pyrazin-6-yl)amino)ethyl)-4-fluorophenyl)-6-(methylamino)nicotinamide]
IC50 [1]: < 300 nM
IC50 [2]: < 300 nM

CCn1cc2ncc(N[C@@H](C)c3cc(NC(=O)c4ccc(CN5CCOCC5)c(Cl)c4)ccc3F)nc2n1 [Compound 427, (S)-3-chloro-N-(3-(1-((2-ethyl-2H-pyrazolo[3,4-b]pyrazin-6-yl)amino)ethyl)-4-fluorophenyl)-4-(morpholinomethyl)benzamide]
IC50 [1]: < 300 nM
IC50 [2]: < 300 nM

CNc1ccc(C(=O)Nc2cccc([C@H](C)Nc3cnc4cnn(C)c4n3)c2)cn1 [Compound 120, (S)-N-(3-(1-((1-methyl-1H-pyrazolo[3,4-b]pyrazin-6-yl)amino)ethyl)phenyl)-6-(methylamino)nicotinamide]
IC50 [1]: 300 to 1000 nM
IC50 [2]: < 300 nM

CCn1nc(C(=O)Nc2cccc([C@H](C)Nc3cnc4cnn(C)c4n3)c2)cc1C(C)C [Compound 163, (S)-1-ethyl-5-isopropyl-N-(3-(1-((1-methyl-1H-pyrazolo[3,4-b]pyrazin-6-yl)amino)ethyl)phenyl)-1H-pyrazole-3-carboxamide]
IC50 [1]: < 300 nM
IC50 [2]: < 300 nM

CCn1cc2ncc(N[C@@H](C)c3cc(NC(=O)Cc4cc(CN5CCN(C)CC5)c(C)cn4)ccc3C)nc2n1 [Compound 722, (S)-N-(3-(1-((2-ethyl-2H-pyrazolo[3,4-b]pyrazin-6-yl)amino)ethyl)-4-methylphenyl)-2-(5-methyl-4-((4-methylpiperazin-1-yl)methyl)pyridin-2-yl)acetamide]
IC50 [1]: ≥ 1000 nM
IC50 [2]: < 300 nM

CCn1cc2ncc(N[C@@H](C)c3cccc(NC(=O)Cc4cc(C)c(F)cn4)c3)nc2n1 [Compound 686, (S)-N-(3-(1-((2-ethyl-2H-pyrazolo[3,4-b]pyrazin-6-yl)amino)ethyl)phenyl)-2-(5-fluoro-4-methylpyridin-2-yl) acetamide]
IC50 [1]: 300 to 1000 nM
IC50 [2]: < 300 nM

COc1ncc(C(=O)Nc2cccc([C@H](C)Nc3cnc4cnn(C)c4n3)c2)cc1C(F)(F)F [Compound 247, (S)-6-methoxy-N-(3-(1-((1-methyl-1-pyrazolo[3,4-b]pyrazin-6-yl)amino)ethyl)phenyl)-5-(trifluoromethyl) nicotinamide]
IC50 [1]: < 300 nM
IC50 [2]: < 300 nM

CCn1cc2ncc(N[C@@H](C)c3cccc(NC(=O)c4ccc(CN5CCN(C6CC6)CC5)c(C)c4)c3)nc2n1 [Compound 462, (S)-4-((4-cyclopropylpiperazin-1-yl)methyl)-N-(3-(1-((2-ethyl-2H-pyrazolo[3,4-b]pyrazin-6-yl)amino)ethyl)phenyl)-3-methylbenzamide]
IC50 [1]: < 300 nM
IC50 [2]: < 300 nM

CCn1cc2ncc(N[C@@H](C)c3cc(NC(=O)Cc4ccc(C)c(C)n4)ccc3C)nc2n1 [Compound 717, (S)-2-(5,6-dimethylpyridin-2-yl)-N-(3-(1-((2-ethyl-2H-pyrazolo[3,4-b]pyrazin-6-yl)amino)ethyl)-4-methylphenyl) acetamide]
IC50 [1]: < 300 nM
IC50 [2]: < 300 nM

CCn1cc2ncc(N[C@@H](C)c3cccc(NC(=O)c4ccc(C(=O)N5CC[C@@H](N)C5)c(Cl)c4)c3)nc2n1 [Compound 467, 4-((R)-3-aminopyrrolidine-1-carbonyl)-3-chloro-N-(3-((5)-1-((2-ethyl-2H-pyrazolo[3,4-b]pyrazin-6-yl)amino)ethyl)phenyl)benzamide]
IC50 [1]: ≥ 1000 nM
IC50 [2]: < 300 nM

Cc1c[nH]c2ncc(N[C@@H](C)c3cccc(NC(=O)c4cc(C(F)(F)F)n(C)n4)c3)nc12 [Compound 567, (S)-1-methyl-N-(3-(1-((7-methyl-5H-pyrrolo[2,3-b]pyrazin-2-yl)amino)ethyl)phenyl)-5-(trifluoromethyl)-1H-pyrazole-3-carboxamide]
IC50 [1]: 300 to 1000 nM
IC50 [2]: < 300 nM

CCn1cc2ncc(N[C@@H](C)c3cc(NC(=O)Cc4cccc(Cl)c4)ccc3F)nc2n1 [Compound 635, (S)-2-(3-chlorophenyl)-N-(3-(1-((2-ethyl-2H-pyrazolo[3,4-b]pyrazin-6-yl)amino)ethyl)-4-fluorophenyl)acetamide]
IC50 [1]: < 300 nM
IC50 [2]: < 300 nM

CNc1ncc(C(=O)Nc2cccc([C@H](C)Nc3cnc4cnn(C)c4n3)c2)cc1C [Compound 130, (S)-5-methyl-N-(3-(1-((1-methyl-1H-pyrazolo[3,4-b]pyrazin-6-yl)amino)ethyl)phenyl)-6-(methylamino) nicotinamide]
IC50 [1]: < 300 nM
IC50 [2]: < 300 nM
